Key:
Assay type in all cases: in vivo
[1] = test system: ERIBO = fleabane (Conyza bonariensis); assay: Field trial, winter pre-emergence application, residual weed control (Table 1); settings: rated 50 to 132 Days After Application
Protocol: (§1) Evaluation of Pre-Emergence and Post-Emergence Herbicidal Activity of Mixtures in the Field
(§2) Field trials were conducted in perennial tree and vine crops using standard herbicide small plot research methodology. Plots varied from 3×3 meter (m) to 3×10 m (width×length) with 3 to 4 replicates per treatment. The perennial tree and vine crops were grown using normal cultural practices for the respective areas for the trials, using normal planting, fertilization, watering, flooding and maintenance for pests to ensure good growth of the crop and the weeds.
(§3) All treatments in the field trials were applied using a carbon dioxide (CO2) backpack sprayer calibrated to apply 187 liters per hectare (L/ha) spray volume. Commercially available products of penoxsulam and oxyfluorfen were mixed in water at appropriate formulated product rates to achieve the desired rates shown based on a unit area of application (hectare). Treatments were rated at different intervals from treatment to evaluation, from 7 to 175 days after application as compared to the untreated control plants. Due to the long term residual weed control needed to determine the synergistic effect, all single entity products and their tank mixes were mixed with glyphosate to ensure complete weed burndown to be able to measure residual weed control and not just burndown of weeds. Visual weed control was scored on a scale of 0 to 100 percent where 0 corresponds to no injury and 100 corresponds to complete kill.
(§4) Colby's equation was used to determine the herbicidal effects expected from the mixtures (Colby, S. R. Calculation of the synergistic and antagonistic response of herbicide combinations. Weeds 1967, 15, 20-22).
(§5) The following equation was used to calculate the expected activity of mixtures containing two active ingredients, A and B: Expected=A+B−(A×B/100)
(§6) A=observed efficacy of active ingredient A at the same concentration as used in the mixture.
(§7) B=observed efficacy of active ingredient B at the same concentration as used in the mixture.

[2] = test system: ERICA = marestail (Conyza canadensis); assay: as above; settings: rated 50 to 132 Days After Application
Protocol: as §1, §2, §3, §4, §5, §6, §7

[3] = test system: MALNE = mallow/malva (Malva neglecta); assay: as above; settings: rated 50 to 132 Days After Application
Protocol: as §1, §2, §3, §4, §5, §6, §7

[4] = test system: ERICA = marestail (Conyza canadensis); assay: Field trial, autumn pre-emergence application, residual weed control (Table 2); settings: Spain, rated 97 to 175 Days After Application; for % Control ERICA (2) Ob (observed visual weed control): Moron de la frontera; for % Control ERICA (1) Ob (observed visual weed control): Utrera
Protocol: as §1, §2, §3, §4, §5, §6, §7

[5] = test system: SHRAR = field madder (Sherardia arvensis); assay: as above; settings: rated 97 to 175 Days After Application
Protocol: as §1, §2, §3, §4, §5, §6, §7

[6] = test system: CHEAL = common lambsquarter (Chenopodium album); assay: Field trial, autumn post-emergence application, residual weed control (Table 3); settings: rated 56 Days After Application
Protocol: as §1, §2, §3, §4, §5, §6, §7

[7] = test system: HEOEU = common heliotrope (Heliotropium europaeum); assay: as above; settings: rated 56 Days After Application
Protocol: as §1, §2, §3, §4, §5, §6, §7

[8] = test system: POROL = purslane (Portulaca oleracea); assay: as above; settings: rated 56 Days After Application
Protocol: as §1, §2, §3, §4, §5, §6, §7

[9] = test system: SOLNI = black nightshade (Solanum nigrum); assay: Field trial, autumn post-emergence application, post-emergence burndown activity (Table 4); settings: Seville; for % Control SOLNI(2) Ob (observed visual weed control): Spain - 7 Days After Application; for % Control SOLNI(1) Ob (observed visual weed control): Spain - 20 Days After Application
Protocol: as §1, §2, §3, §4, §5, §6, §7

Structure (SMILES): CCOc1cc(Oc2ccc(C(F)(F)F)cc2Cl)ccc1[N+](=O)[O-] [Oxyfluorfen]
- % Control ERIBO Ob (observed visual weed control) ([1]; oxyfluorfen 1120 g/ha alone): 0%
- % Control ERICA Ob (observed visual weed control) ([2]; oxyfluorfen 1680 g/ha alone): 5%
- % Control MALNE Ob (observed visual weed control) ([3]; oxyfluorfen 1680 g/ha alone): 30%
- % Control ERICA (2) Ob (observed visual weed control) ([4]; oxyfluorfen 150 g/ha alone): 79%
- % Control ERICA (1) Ob (observed visual weed control) ([4]; oxyfluorfen 150 g/ha alone): 38%
- % Control SHRAR Ob (observed visual weed control) ([5]; oxyfluorfen 150 g/ha alone): 63%
- % Control CHEAL Ob (observed visual weed control) ([6]; oxyfluorfen 150 g/ha alone): 0%
- % Control HEOEU Ob (observed visual weed control) ([7]; oxyfluorfen 150 g/ha alone): 0%
- % Control POROL Ob (observed visual weed control) ([8]; oxyfluorfen 150 g/ha alone): 0%
- % Control SOLNI(2) Ob (observed visual weed control) ([9]; oxyfluorfen 150 g/ha alone): 45%
- % Control SOLNI(1) Ob (observed visual weed control) ([9]; oxyfluorfen 150 g/ha alone): 35%

Structure (SMILES): COc1cnc(OC)n2nc(NS(=O)(=O)c3c(OCC(F)F)cccc3C(F)(F)F)nc12 [Penoxsulam, 2-(2,2-difluoroethoxy)-N-(5,8-dimethoxy-[1,2,4]triazolo[1,5-c]pyrimidin-2-yl)-6-(trifluoromethyl)benzenesulfonamide]
- % Control ERIBO Ob (observed visual weed control) ([1]; penoxsulam 8.8 g/ha alone): 65%
- % Control ERICA Ob (observed visual weed control) ([2]; penoxsulam 8.8 g/ha alone): 75%
- % Control MALNE Ob (observed visual weed control) ([3]; penoxsulam 17.5 g/ha alone): 37%
- % Control MALNE Ob (observed visual weed control) ([3]; penoxsulam 35 g/ha alone): 50%
- % Control ERICA (2) Ob (observed visual weed control) ([4]; penoxsulam 20 g/ha alone): 6%
- % Control ERICA (1) Ob (observed visual weed control) ([4]; penoxsulam 20 g/ha alone): 23%
- % Control SHRAR Ob (observed visual weed control) ([5]; penoxsulam 20 g/ha alone): 0%
- % Control CHEAL Ob (observed visual weed control) ([6]; penoxsulam 20 g/ha alone): 0%
- % Control HEOEU Ob (observed visual weed control) ([7]; penoxsulam 20 g/ha alone): 0%
- % Control POROL Ob (observed visual weed control) ([8]; penoxsulam 20 g/ha alone): 0%
- % Control SOLNI(2) Ob (observed visual weed control) ([9]; penoxsulam 20 g/ha alone): 10%
- % Control SOLNI(1) Ob (observed visual weed control) ([9]; penoxsulam 20 g/ha alone): 10%

Source: US8338336B2, “Synergistic herbicidal composition containing penoxsulam and oxyfluorfen” (Dow AgroSciences, LLC, priority 2010, dated 2012)
